# According to paper PMC10784468 (Nature Communications, 2024):
# Where two headings read alike, the source gives them in different places. Positions of bridges follow the written chain, without caps; N, C: chain ends. Residues, ends and D or L forms follow the SMILES beside them. *: point of attachment. X1 = O=C(O)c1ccc(-c2c3nc(c(-c4ccc(C(=O)O)cc4)c4ccc([nH]4)c(-c4ccc(C(=O)*)cc4)c4nc(c(-c5ccc(C(=O)O)cc5)c5ccc2[nH]5)C=C4)C=C3)cc1; X2 = O=C(O)C/C(=C/C(=O)*)C(=O)O
# Experiments:
# [1] = tested on: GPX4 protein; assay: Microscale Thermophoresis (MST) ligand binding; settings: labelled GPX4
# Protocol: Initially, GPX4 was labeled using Protein Labeling Kit RED-NHS according to the manufacturer’s instructions to investigate the binding affinity of Gi-F-CAA, Gi-F and NGi-F-CAA with GPX4 protein. Afterward, the labelled GPX4 protein was incubated with series of Gi-F-CAA, Gi-F and NGi-F-CAA concentration gradients. Finally, the prepared samples were loaded into silica capillaries and measured with Monolish NT.115. Apparent Kd represented the affinity of assemblies rather than a single molecule. Bovine serum albumin (BSA) was used as control for calculating the apparent binding affinity between Gi-F (nanoparticle) to GPX4 protein. Briefly, as the diameter of nanoparticle is proportional to the molecular weight, according to the reported bovine serum albumin (BSA) protein size and molecular weight (7.2 nm, 66.43 KDa), the molecular weight of Gi-F nanoparticle with an average 78 nm size can be calculated to be […]. The monomer amount Gi-F nanoparticle was calculated as […].
# [2] = tested on: HUVEC cells; type: cell-based; settings: HUVEC cells, pH=7.4
# Protocol: Supplementary Fig. 27. Viability of HUVEC cells after treated with Gi -F (pH=7.4) and Gi-F-CAA (pH=7.4) at different
# concentrations for 48 h (n=3 experimental repeats). Experiment was independently repeated three times with
# (1 picture or pasted object on this page, not shown here)
# [3] = tested on: EJ cells; assay: Intracellular Fe2+ ions detection; type: cell-based
# Protocol: Initially, EJ cells (5 × 10^5) were cultured in confocal dish with a CO2 incubator overnight at 37 °C. […] Afterwards, EJ cells were washed with PBS for 3 times and replaced with culture mediums.
# [4] = Hydrolysis of the peptide-porphyrin conjugates at pH 7.4 and 6.5 (dialysis, HPLC); type: physicochemical; settings: 37 °C, dialysis MWCO 1000 Da, released CAA by HPLC, mean of n = 3
# Protocol: In vitro hydrolysis analysis of the peptide-porphyrin conjugates was studied in pH values of 7.4 and 6.5 solutions. 20 mg of peptide-porphyrin conjugate was dissolved in 2 mL pH 7.4 buffer solution, which was then transferred into a dialysis bag (MWCO: 1000 Da) and immersed in 25 mL of different pH buffer solutions at 37 °C with continuous shaking respectively. At fixed time intervals (20 min, 40 min, 1 h, 2 h and 4 h), […] chromatography (HPLC, WATERS Alliance HPLC e2489), and an equal volume of fresh buffer solution was replaced to the system. In order to determine the CAA concentration according to the peak area of the CAA, a standard curve of the CAA was plotted, with the peak area as a function of the concentration. […]
# [5] = Critical aggregation concentration (pyrene probe, I338/I335); type: physicochemical; settings: for I338/I335 (pyrene): pyrene 6 μM, emission 393 nm
# Protocol: The CACs were determined using pyrene as a fluorescent probe. In brief, 50 μL of pyrene solution in acetone (480 μM) was added to a 5 mL centrifuge tube, followed by adding a series of peptide-porphyrin conjugate solutions with different concentrations, and the tube was kept overnight to evaporate the acetone completely, the concentration of pyrene being fixed at 6 μM at last. The excitation spectra of the solutions were recorded with the emission wavelength fixing at 393 nm, and the intensity ratio (I338/I335) was calculated as a function of the concentration. The CAC was determined based on the intersection point at low concentration on the plot.
# [6] = Particle size by DLS; type: physicochemical
# Protocol: Nano-ZS 3600 (Malvern Instruments, UK) was used to measure the size distribution of the peptide-porphyrin conjugate solutions. The conjugate solutions (40 μM) were incubated at pH 7.4 or pH 6.5 before measurements. An average value was determined by three repeated measurements at 25 °C for each sample. Besides, transmission electron microscopy (TEM, Tecnai G2 20 S-TWIN) was conducted to observe the morphology and diameters of conjugates in aqueous solution, The conjugates (50 μL, 40 μM) were kept in PB solution at pH 7.4 or pH 6.5, which were dropped on copper meshes. After 5 min, unnecessary liquid was removed and the uranyl acetate solution (10 μL) was dropped on this copper mesh to stain the samples for 10 min. Finally, the copper meshes were washed with deionized water, and dried at room temperature for observation.
smiles,measurement,setting,value
CC(C)C[C@H](NC(=O)c1ccc(-c2c3nc(c(-c4ccc(C(=O)O)cc4)c4ccc([nH]4)c(-c4ccc(C(=O)O)cc4)c4nc(c(-c5ccc(C(=O)O)cc5)c5ccc2[nH]5)C=C4)C=C3)cc1)C(=O)N[C@@H](CCCCNC(=O)/C=C(/CC(=O)O)C(=O)O)C(=O)N[C@@H](CC(C)C)C(=O)N[C@@H](CCCCN)C(=O)N[C@@H](CC(C)C)C(=O)N[C@@H](CCCCNC(=O)/C=C(/CC(=O)O)C(=O)O)C(=O)NCC(=O)N[C@@H](C)C(=O)N[C@H]1CSSC[C@@H](C(=O)N2CCC[C@H]2C(=O)N[C@H](C(=O)O)C(C)C)NC(=O)[C@@H]2CCCN2C(=O)[C@H](Cc2ccc(O)cc2)NC(=O)[C@H](CC(C)C)NC(=O)[C@@H]2CCCN2C(=O)[C@H](CC(C)C)NC(=O)[C@H](Cc2c[nH]c3ccccc23)NC(=O)[C@H](CC(N)=O)NC1=O [Gi-F-CAA] (X1-LK(X2)LKLK(X2)GACNWLPLYPCPV-OH; disulfide 9-17; C-terminus assumed),"Fnorm (‰), MST original data",[1]; ligand concentration 3.05176e-8 (μM),933.824 ‰
same,"Fnorm (‰), MST original data",[1]; ligand concentration 6.10352e-8 (μM),930.278 ‰
same,"Fnorm (‰), MST original data",[1]; ligand concentration 1.2207e-7 (μM),933.334 ‰
same,"Fnorm (‰), MST original data",[1]; ligand concentration 2.44141e-7 (μM),933.054 ‰
same,"Fnorm (‰), MST original data",[1]; ligand concentration 4.88281e-7 (μM),933.313 ‰
same,"Fnorm (‰), MST original data",[1]; ligand concentration 9.76563e-7 (μM),936.876 ‰
same,"Fnorm (‰), MST original data",[1]; ligand concentration 1.95313e-6 (μM),940.785 ‰
same,"Fnorm (‰), MST original data",[1]; ligand concentration 3.90625e-6 (μM),940.492 ‰
same,"Fnorm (‰), MST original data",[1]; ligand concentration 7.8125e-6 (μM),946.829 ‰
same,"Fnorm (‰), MST original data",[1]; ligand concentration 1.5625e-5 (μM),943.797 ‰
same,"Fnorm (‰), MST original data",[1]; ligand concentration 3.125e-5 (μM),948.084 ‰
same,"Fnorm (‰), MST original data",[1]; ligand concentration 6.25e-5 (μM),945.991 ‰
same,"Fnorm (‰), MST original data",[1]; ligand concentration 0.000125 (μM),949.08 ‰
same,"Fnorm (‰), MST original data",[1]; ligand concentration 0.00025 (μM),946.188 ‰
same,"Fnorm (‰), MST original data",[1]; ligand concentration 0.0005 (μM),949.615 ‰
same,"Fnorm (‰), MST original data",[1]; ligand concentration 0.001 (μM),948.046 ‰
same,Cell viability of HUVEC,"[2]; log concentration (μM) 0, replicate 1",101.3%
same,Cell viability of HUVEC,"[2]; log concentration (μM) 0, replicate 2",99.35%
same,Cell viability of HUVEC,"[2]; log concentration (μM) 0, replicate 3",93.55%
same,Cell viability of HUVEC,"[2]; log concentration (μM) 0.30103, replicate 1",97.11%
same,Cell viability of HUVEC,"[2]; log concentration (μM) 0.30103, replicate 2",93.48%
same,Cell viability of HUVEC,"[2]; log concentration (μM) 0.30103, replicate 3",94.74%
same,Cell viability of HUVEC,"[2]; log concentration (μM) 0.60206, replicate 1",97.32%
same,Cell viability of HUVEC,"[2]; log concentration (μM) 0.60206, replicate 2",86.5%
same,Cell viability of HUVEC,"[2]; log concentration (μM) 0.60206, replicate 3",95.44%
same,Cell viability of HUVEC,"[2]; log concentration (μM) 0.90309, replicate 1",84.68%
same,Cell viability of HUVEC,"[2]; log concentration (μM) 0.90309, replicate 2",94.46%
same,Cell viability of HUVEC,"[2]; log concentration (μM) 0.90309, replicate 3",84.96%
same,Cell viability of HUVEC,"[2]; log concentration (μM) 1.20412, replicate 1",84.75%
same,Cell viability of HUVEC,"[2]; log concentration (μM) 1.20412, replicate 2",89.22%
same,Cell viability of HUVEC,"[2]; log concentration (μM) 1.20412, replicate 3",82.31%
same,Cell viability of HUVEC,"[2]; log concentration (μM) 1.50515, replicate 1",77.42%
same,Cell viability of HUVEC,"[2]; log concentration (μM) 1.50515, replicate 2",83.56%
same,Cell viability of HUVEC,"[2]; log concentration (μM) 1.50515, replicate 3",82.86%
same,Cell viability of HUVEC,"[2]; log concentration (μM) 1.80618, replicate 1",75.32%
same,Cell viability of HUVEC,"[2]; log concentration (μM) 1.80618, replicate 2",80.77%
same,Cell viability of HUVEC,"[2]; log concentration (μM) 1.80618, replicate 3",73.08%
same,Cell viability of HUVEC,"[2]; log concentration (μM) 2.10721, replicate 1",65.68%
same,Cell viability of HUVEC,"[2]; log concentration (μM) 2.10721, replicate 2",64.77%
same,Cell viability of HUVEC,"[2]; log concentration (μM) 2.10721, replicate 3",61.91%
same,Cell viability of HUVEC,"[2]; log concentration (μM) 2.40824, replicate 1",56.53%
same,Cell viability of HUVEC,"[2]; log concentration (μM) 2.40824, replicate 2",48.01%
same,Cell viability of HUVEC,"[2]; log concentration (μM) 2.40824, replicate 3",52.83%
same,"intracellular Fe^2+ (FerroOrange fluorescence), pH 6.5","[3]; EJ cells, pH 6.5, 40 μM, 8 h",substantially enhanced fluorescence
same,"intracellular Fe^2+ (FerroOrange fluorescence), pH 7.4","[3]; EJ cells, pH 7.4, 8 h",no remarkable fluorescence
same,Concentrations of Fe2+ ions,"[3]; pH=6.5, replicate #1",22.485 ng/104cells
same,Concentrations of Fe2+ ions,"[3]; pH=6.5, replicate #2",27.487 ng/104cells
same,Concentrations of Fe2+ ions,"[3]; pH=6.5, replicate #3",29.009 ng/104cells
same,Concentrations of Fe2+ ions,"[3]; pH=7.4, replicate #1",12.656 ng/104cells
same,Concentrations of Fe2+ ions,"[3]; pH=7.4, replicate #2",15.918 ng/104cells
same,Concentrations of Fe2+ ions,"[3]; pH=7.4, replicate #3",12.221 ng/104cells
same,Hydrolysis of CAA (%),"[4]; pH 6.5 buffer, 0 min",0%
same,Hydrolysis of CAA (%),"[4]; pH 6.5 buffer, 20 min",17.6%
same,Hydrolysis of CAA (%),"[4]; pH 6.5 buffer, 40 min",43.7%
same,Hydrolysis of CAA (%),"[4]; pH 6.5 buffer, 60 min",53.6%
same,Hydrolysis of CAA (%),"[4]; pH 6.5 buffer, 120 min",56.9%
same,Hydrolysis of CAA (%),"[4]; pH 6.5 buffer, 240 min",57.5%
same,Hydrolysis of CAA (%),"[4]; pH 7.4 buffer, 0 min",0%
same,Hydrolysis of CAA (%),"[4]; pH 7.4 buffer, 20 min",3.1%
same,Hydrolysis of CAA (%),"[4]; pH 7.4 buffer, 40 min",10.9%
same,Hydrolysis of CAA (%),"[4]; pH 7.4 buffer, 60 min",12.1%
same,Hydrolysis of CAA (%),"[4]; pH 7.4 buffer, 120 min",13.1%
same,Hydrolysis of CAA (%),"[4]; pH 7.4 buffer, 240 min",14.3%
same,I338/I335 (pyrene),[5]; conjugate 0.97656 μM,0.974
same,I338/I335 (pyrene),[5]; conjugate 1.95313 μM,0.9716
same,I338/I335 (pyrene),[5]; conjugate 3.90625 μM,0.9744
same,I338/I335 (pyrene),[5]; conjugate 7.8125 μM,0.9774
same,I338/I335 (pyrene),[5]; conjugate 15.625 μM,0.9762
same,I338/I335 (pyrene),[5]; conjugate 31.25 μM,0.9729
same,I338/I335 (pyrene),[5]; conjugate 62.5 μM,0.9783
same,I338/I335 (pyrene),[5]; conjugate 125 μM,0.9903
same,I338/I335 (pyrene),[5]; conjugate 250 μM,1.02
same,I338/I335 (pyrene),[5]; conjugate 500 μM,1.0656
same,I338/I335 (pyrene),[5]; conjugate 1000 μM,1.12
same,critical aggregation concentration (CAC),"[5]; pyrene probe, I338/I335, PBS 0.01 M, pH 7.4",149.5 µM
same,particle size (DLS) after incubation at pH 6.5 for 1 h,"[6]; 40 μM, PBS 0.01 M, pH 6.5, 1 h, 25 °C",78 ± 11 nm
same,particle size (DLS) before incubation,"[6]; 40 μM, PBS 0.01 M, pH 6.5, before incubation, 25 °C",13 ± 3 nm
same,particle size change (DLS) at pH 7.4,"[6]; 40 μM, PBS 0.01 M, pH 7.4",no obvious changes
same,size (DLS) at pH 7.4,"[6]; pH 7.4, peer review response",about 11 ± 2 nm
